Source: the supplement of paper PMC12137928
Structures can show the parent of a compound that is named as a salt.

How the values were obtained:
[1] = tested on: HCT116; conditions: 72 h
How it was run: (§1)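 For IC50 and maximal efficacy, four-parameter Hill fits were used. Input values were CellTiter-Glo luminescence from HCT116 cells seeded at 250 per well in 1536-well plates, normalized to vehicle (0%) and positive control (-100%). Pattern correction followed normalization.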

[2] = tested on: HCT116; experiment: efficacy (maximum % inhibition of viability vs DMSO); higher = more cytotoxic; conditions: 72 h
How it was run: as §1

IC50 cell viability ([1]; ICRF193 0 nM) | IC50 cell viability ([1]; ICRF193 200 nM) | Compound | efficacy ([2]; ICRF193 0 nM) | efficacy ([2]; ICRF193 200 nM)
0.0651 µM | 0.058 µM | Cc1[nH]c2ccccc2c1CCNCc1ccc(/C=C/C(=O)NO)cc1 [Panobinostat] | 95.6% | 94.8%
18.3 µM | > 45.8 µM | Cc1ccc(Nc2nccc(N(C)c3ccc4c(C)n(C)nc4c3)n2)cc1S(N)(=O)=O [Pazopanib] | 56.3% | –
> 45.8 µM | 20.6 µM | CC(C)(C)NC[C@H](O)COc1ccccc1C1CCCC1 [Penbutolol sulfate] | – | 50%
> 45.8 µM | 18.3 µM | N=C(N)c1ccc(OCCCCCOc2ccc(C(=N)N)cc2)cc1 [Pentamidine isethionate] | – | 60.4%
31.6 µM | 35.5 µM | CN1CCN(CCCN2c3ccccc3Sc3ccccc32)CC1 [Perazine] | 86.5% | 95.2%
23.1 µM | 23.1 µM | OCCN1CCN(CCCN2c3ccccc3Sc3ccc(Cl)cc32)CC1 [Perphenazine] | 108% | 115%
18.3 µM | 18.3 µM | CC(C)COc1ccc(CNC(=O)N(Cc2ccc(F)cc2)C2CCN(C)CC2)cc1 [Pimavanserin] | 96.9% | 97.4%
> 45.8 µM | 20.6 µM | CC(=O)c1ccc2c(c1)N(CCCN1CCC(CCO)CC1)c1ccccc1S2 [Piperacetazine] | – | 48.7%
7.3 µM | 3.66 µM | O=C(O)C[C@H](O)C[C@H](O)/C=C/c1c(C2CC2)nc2ccccc2c1-c1ccc(F)cc1 [Pitavastatin Calcium] | 100% | 110%
29.1 µM | 13 µM | NCCNc1ccc(NCCN)c2c1C(=O)c1ccncc1C2=O [Pixantronemaleate] | 83.2% | 82.2%
0.0082 µM | 0.00651 µM | C#CCC(Cc1cnc2nc(N)nc(N)c2n1)c1ccc(C(=O)N[C@@H](CCC(=O)O)C(=O)O)cc1 (some centres not stated) [Pralatrexate] | 84.8% | 85.6%
> 45.8 µM | 7.99 µM | COc1cc2nc(N3CCN(C(=O)c4ccco4)CC3)nc(N)c2cc1OC [Prazosin] | – | 42.5%
5.8 µM | > 45.8 µM | COc1cc(NC(C)CCCN)c2ncccc2c1 (configuration not stated) [Primaquine diphosphate] | 87.5% | –
25.9 µM | 20.6 µM | CN1CCN(CCCN2c3ccccc3Sc3ccc(Cl)cc32)CC1 [Prochlorperazine dimaleate] | 89.6% | 81.1%
20.6 µM | 29.1 µM | Nc1ccc2cc3ccc(N)cc3nc2c1 [Proflavin hemisulfate] | 95.1% | 93.6%
> 45.8 µM | 20.6 µM | CCCN(CCC)C(=O)C(CCC(=O)OCCCN1CCN(CCOC(=O)Cc2c(C)n(C(=O)c3ccc(Cl)cc3)c3ccc(OC)cc23)CC1)NC(=O)c1ccccc1 (configuration not stated) [Proglumetacin] | – | 48.5%
> 45.8 µM | 20.6 µM | CN(C)CCCN1c2ccccc2Sc2ccccc21 [Promazine hydrochloride] | – | 46.3%
> 45.8 µM | 29.1 µM | CC(CN1c2ccccc2Sc2ccccc21)N(C)C (configuration not stated) [Promethazine] | – | 45.3%
> 45.8 µM | 23.1 µM | CCC(=O)c1ccc2c(c1)N(CCCN(C)C)c1ccccc1S2 [Propionylpromazine hydrochloride] | – | 60.1%
> 45.8 µM | 16.4 µM | CCCOC(C(=O)OC1CCN(C)CC1)(c1ccccc1)c1ccccc1 [Propiverine hydrochloride] | – | 45%
29.1 µM | 29.1 µM | CNCCCC1c2ccccc2C=Cc2ccccc21 [Protriptyline hydrochloride] | 68.2% | 95.4%
11.6 µM | 9.2 µM | CCc1nc(N)nc(N)c1-c1ccc(Cl)cc1 [Pyrimethamine] | 106% | 93.4%
14.6 µM | 18.3 µM | O=[N+]([O-])c1c(Cl)cccc1-c1c[nH]cc1Cl [Pyrrolnitrin] | 54.1% | 55.5%
18.3 µM | 20.6 µM | O=C(c1ccc(OCCN2CCCCC2)cc1)c1c(-c2ccc(O)cc2)sc2cc(O)ccc12 [Raloxifene hydrochloride] | 98.1% | 88.8%
8.2 µM | 5.8 µM | CNC(=O)c1cc(Oc2ccc(NC(=O)Nc3ccc(Cl)c(C(F)(F)F)c3)c(F)c2)ccn1 [Regorafenib] | 67.3% | 80.7%
> 45.8 µM | 29.1 µM | Oc1cccc(O)c1 [Resorcinol] | – | 46.8%
20.6 µM | 18.3 µM | Cc1cc(/C=C/C#N)cc(C)c1Nc1ccnc(Nc2ccc(C#N)cc2)n1 [Rilpivirine] | 83.7% | 84.8%
18.3 µM | 29.1 µM | Cc1c(C(=O)NN2CCCCC2)nn(-c2ccc(Cl)cc2Cl)c1-c1ccc(Cl)cc1 [Rimonabant] | 64.4% | 87.3%
> 45.8 µM | 20.6 µM | CC(C)c1nc(CN(C)C(=O)N[C@H](C(=O)N[C@@H](Cc2ccccc2)C[C@H](O)[C@H](Cc2ccccc2)NC(=O)OCc2cncs2)C(C)C)cs1 [Ritonavir] | – | 57.4%

More lines, now with the values behind:

Compound | IC50 cell viability ([1]; ICRF193 0 nM) | IC50 cell viability ([1]; ICRF193 200 nM) | efficacy ([2]; ICRF193 0 nM) | efficacy ([2]; ICRF193 200 nM)
COc1ccc(Cc2nccc3cc(OC)c(OC)cc23)cc1OC [Papaverine hydrochloride] | > 45.8 µM | 3.66 µM | – | 41.6%
C=C1C(=O)O[C@H]2[C@H]1CC/C(C)=C/CC[C@@]1(C)O[C@@H]21 [Parthenolide] | 6.51 µM | 8.2 µM | 93.1% | 95.3%
C1CCC(C(CC2CCCCN2)C2CCCCC2)CC1 (configuration not stated) [Perhexiline] | 18.3 µM | 18.3 µM | 90.2% | 100%
CC(=O)[O][Hg][c]1ccccc1 [Phenylmercuric acetate] | 4.61 µM | 5.17 µM | 106% | 97.9%
CC[C@@H]1/C=C(\C)C[C@H](C)C[C@H](OC)[C@H]2O[C@@](O)(C(=O)C(=O)N3CCCC[C@H]3C(=O)O[C@H](/C(C)=C/[C@@H]3CC[C@H](Cl)[C@H](OC)C3)[C@H](C)[C@@H](O)CC1=O)[C@H](C)C[C@@H]2OC [Pimecrolimus] | 14.6 µM | 18.3 µM | 62.4% | 63.4%
O=c1[nH]c2ccccc2n1C1CCN(CCCC(c2ccc(F)cc2)c2ccc(F)cc2)CC1 [Pimozide] | 18.3 µM | 20.6 µM | 102% | 109%
COc1cccc2c1C(=O)c1c(O)c3c(c(O)c1C2=O)C[C@@](O)(C(=O)CO)C[C@@H]3O[C@H]1C[C@H](N)[C@H](O[C@@H]2CCCCO2)[C@H](C)O1 [Pirarubicin] | 5.17 µM | 6.51 µM | 127% | 104%
Cc1cc(CC(C)CC(C)(C)C)n(O)c(=O)c1 (configuration not stated) [Piroctone Olamine] | 18.3 µM | 29.1 µM | 81% | 87.4%
CO[C@H](C(=O)[C@@H](O)[C@@H](C)O)[C@@H]1Cc2cc3cc(O[C@H]4C[C@@H](O[C@@H]5C[C@@H](O)[C@H](O)[C@@H](C)O5)[C@H](O)[C@@H](C)O4)c(C)c(O)c3c(O)c2C(=O)[C@H]1O[C@H]1C[C@@H](O[C@@H]2C[C@@H](O)[C@@H](O[C@@H]3C[C@](C)(O)[C@H](O)[C@@H](C)O3)[C@@H](C)O2)[C@H](O)[C@@H](C)O1 [Plicamycin] | 0.0651 µM | 0.058 µM | 82.3% | 83.7%
CC(C)(C)CC(=O)OCC(=O)[C@@]1(O)CC[C@H]2[C@@H]3CCC4=CC(=O)C=C[C@]4(C)[C@H]3[C@@H](O)C[C@@]21C [Prednisolone tebutate] | > 45.8 µM | 29.1 µM | – | 41.9%
CC(=O)[C@H]1CC[C@H]2[C@@H]3CCC4=CC(=O)CC[C@]4(C)[C@H]3CC[C@]12C [Progesterone] | 29.1 µM | 18.3 µM | 43.3% | 51.2%
C[C@@H]1O[C@@H](O[C@@H]2C=C3CC[C@@H]4[C@H](CC[C@]5(C)[C@@H](c6ccc(=O)oc6)CC[C@]45O)[C@@]3(C)CC2)[C@H](O)[C@H](O)[C@H]1O [Proscillaridin] | 0.0164 µM | 0.013 µM | 107% | 91.3%
CCCCC[C@H](O)/C=C/[C@H]1[C@H](O)CC(=O)[C@@H]1C/C=C\CCCC(=O)O [Prostaglandin E2] | 29.1 µM | 23.1 µM | 68.9% | 84.7%
CCCSS/C(CCO)=C(/C)N(C=O)Cc1cnc(C)nc1N [Prosultiamine] | > 45.8 µM | 29.1 µM | – | 43.7%
C#C[C@]1(O)CC[C@H]2[C@@H]3CCc4cc(OC5CCCC5)ccc4[C@H]3CC[C@@]21C [Quinestrol] | 20.6 µM | 23.1 µM | 55% | 56.3%
COC(=O)[C@H]1[C@H]2C[C@@H]3c4[nH]c5cc(OC)ccc5c4CCN3C[C@H]2C[C@@H](OC(=O)/C=C/c2ccc(O)c(OC)c2)[C@@H]1OC [Rescimetol] | 20.6 µM | 29.1 µM | 101% | 106%
COC(=O)[C@H]1[C@H]2C[C@@H]3c4[nH]c5cc(OC)ccc5c4CCN3C[C@H]2C[C@@H](OC(=O)c2cc(OC)c(OC)c(OC)c2)[C@@H]1OC [Reserpine] | > 45.8 µM | 16.4 µM | – | 42.6%
C=CCNc1c(O)cc2c(O)c1C[C@@H](C)C[C@H](OC)[C@H](O)[C@@H](C)/C=C(\C)[C@H](OC(N)=O)[C@@H](OC)/C=C\C=C(/C)C(=O)N2 [Retaspimycin (Hydrochloride)] | 1.16 µM | 0.291 µM | 80.4% | 79.8%
CCCC(=O)OC[C@@H](OC(=O)CCC)[C@@H](OC(=O)CCC)[C@H](Cn1c2nc(=O)[nH]c(=O)c-2nc2cc(C)c(C)cc21)OC(=O)CCC [Riboflavin tetrabutyrate] | 29.1 µM | 18.3 µM | 64.5% | 82.1%
Cc1cc2nc3c(=O)[nH]c(=O)nc-3n(C[C@H](O)[C@H](O)[C@H](O)CO)c2cc1C [Riboflavin] | > 45.8 µM | 14.2 µM | – | 57.7%
CO[C@H]1/C=C/O[C@@]2(C)Oc3c(C)c(O)c4c(O)c(c(/C=N/N5CCN(C)CC5)c(O)c4c3C2=O)NC(=O)/C(C)=C\C=C\[C@H](C)[C@H](O)[C@@H](C)[C@@H](O)[C@@H](C)[C@H](OC(C)=O)[C@@H]1C [Rifampicin] | 29.1 µM | 29.1 µM | 44.2% | 44.1%
Nc1nc2ccc(OC(F)(F)F)cc2s1 [Riluzole] | > 45.8 µM | 23.1 µM | – | 46.2%
O=C(O)c1c(Cl)c(Cl)c(Cl)c(Cl)c1-c1c2cc(I)c(=O)c(I)c-2oc2c(I)c(O)c(I)cc12 [Rose Bengal disodium] | 16.4 µM | 11.6 µM | 74.2% | 62.4%
C=C(C)[C@H]1Cc2c(ccc3c2O[C@@H]2COc4cc(OC)c(OC)cc4[C@@H]2C3=O)O1 [Rotenone] | 0.326 µM | 0.517 µM | 69.7% | 89.1%
CC[C@@]1(O)C(=O)OCc2c1cc1n(c2=O)Cc2cc3c([N+](=O)[O-])cccc3nc2-1 [Rubitecan] | 0.447 µM | 0.0891 µM | 81.2% | 96.5%
